Active and inactive are the calls of the source. No cut-off for these calls is given here.

Test [1] deals with Bacillus subtilis. The test is described as follows: Antibacterial activity against Bacillus subtilis MTCC 121 at 200 ug/ml by cup plate method. Format: functional. Particulars: read-out: DIZ.
The subject of test [2] is Staphylococcus aureus. The test is described as follows: Antibacterial activity against Staphylococcus aureus MTCC 96 by cup-plate method. In kind it is functional, organism-based.
In test [3] the test system is Staphylococcus aureus. Kind of test: Antibacterial activity against Staphylococcus aureus MTCC 96 at 300 ug/ml by cup-plate method. Format: functional. The conditions noted are these: read-out: DIZ.
Test [4] has as its system Escherichia coli. The test is described as follows: Antibacterial activity against Escherichia coli MTCC 739 at 50 ug/ml by cup-plate method. Format: functional. Particulars: read-out: DIZ.
For test [5], the system named is Bacillus subtilis. Kind of test: Antibacterial activity against Bacillus subtilis MTCC 121 at 300 ug/ml by cup plate method. Format: functional. Particulars: read-out: DIZ.
The subject of a further test is Candida albicans. The test is described as follows: Antifungal activity against Candida albicans MTCC 227 at 50 to 300 ug/ml by cup-plate method. Format: functional, organism-based.
Test [6] has as its system Escherichia coli. Kind of test: Antibacterial activity against Escherichia coli MTCC 739 at 100 ug/ml by cup-plate method. In kind it is functional. Particulars: read-out: DIZ.
Test [7] concerns Pseudomonas aeruginosa. The test is described as follows: Antibacterial activity against Pseudomonas aeruginosa MTCC 2453 at 300 ug/ml by cup-plate method. The conditions noted are these: read-out: DIZ. Format: functional.
The subject of test [8] is Staphylococcus aureus. Kind of test: Antibacterial activity against Staphylococcus aureus MTCC 96 at 100 ug/ml by cup-plate method. In kind it is functional. Particulars: read-out: DIZ.
In test [9] the test system is Escherichia coli. Kind of test: Antibacterial activity against Escherichia coli MTCC 739 at 300 ug/ml by cup-plate method. In kind it is functional. The conditions noted are these: read-out: DIZ.
Test [10] has as its system Bacillus subtilis. Kind of test: Antibacterial activity against Bacillus subtilis MTCC 121 by cup plate method. Format: functional, organism-based.
The subject of test [11] is Escherichia coli. Kind of test: Antibacterial activity against Escherichia coli MTCC 739 at 200 ug/ml by cup-plate method. Format: functional. The conditions noted are these: read-out: DIZ.
Test [12] deals with Pseudomonas aeruginosa. The test is described as follows: Antibacterial activity against Pseudomonas aeruginosa MTCC 2453 by cup-plate method. In kind it is functional, organism-based.
The test system of test [13] is Escherichia coli. Kind of test: Antibacterial activity against Escherichia coli MTCC 739 by cup-plate method. In kind it is functional, organism-based.
Test [14] has as its system Staphylococcus aureus. The test is described as follows: Antibacterial activity against Staphylococcus aureus MTCC 96 at 50 ug/ml by cup-plate method. In kind it is functional. Particulars: read-out: DIZ.
Test [15] concerns Pseudomonas aeruginosa. The test is described as follows: Antibacterial activity against Pseudomonas aeruginosa MTCC 2453 at 200 ug/ml by cup-plate method. In kind it is functional. The conditions noted are these: read-out: DIZ.
Test [16] has as its system Pseudomonas aeruginosa. The test is described as follows: Antibacterial activity against Pseudomonas aeruginosa MTCC 2453 at 100 ug/ml by cup-plate method. Format: functional. Particulars: read-out: DIZ.
Test [17] deals with Staphylococcus aureus. The test is described as follows: Antibacterial activity against Staphylococcus aureus MTCC 96 at 200 ug/ml by cup-plate method. In kind it is functional. Particulars: read-out: DIZ.
In test [18] the test system is Bacillus subtilis. The test is described as follows: Antibacterial activity against Bacillus subtilis MTCC 121 at 100 ug/ml by cup plate method. In kind it is functional. The conditions noted are these: read-out: DIZ.
Test [19] relates to Pseudomonas aeruginosa. Kind of test: Antibacterial activity against Pseudomonas aeruginosa MTCC 2453 at 50 ug/ml by cup-plate method. In kind it is functional. Particulars: read-out: DIZ.
Test [20] concerns Bacillus subtilis. The test is described as follows: Antibacterial activity against Bacillus subtilis MTCC 121 at 50 ug/ml by cup plate method. In kind it is functional. Particulars: read-out: DIZ.

Consider `O=C1N/C(=N\c2cccc(Cl)c2)S/C1=C\c1ccc(O)cc1`, for which the zone of inhibition at 200 µg/mL is 8 mm in the test on Bacillus subtilis [1], 8 mm in the test on Escherichia coli [11], 9 mm in the test with Pseudomonas aeruginosa [15] and 9 mm in the test with Staphylococcus aureus [17]. In addition, the Activity entry in the test with Staphylococcus aureus [2], with Bacillus subtilis [10], with Pseudomonas aeruginosa [12] and in the test with Escherichia coli [13] was “Dose-dependent effect” throughout. Also, the zone of inhibition at 300 µg/mL is 10 mm with Staphylococcus aureus [3], 9 mm in the test with Bacillus subtilis [5], 10 mm in the test with Pseudomonas aeruginosa [7] and 9 mm in the test on Escherichia coli [9]. Besides, the zone of inhibition at 50 µg/mL was determined as 7 mm in the test on Escherichia coli [4], 8 mm in the test with Staphylococcus aureus [14], 7 mm in the test with Pseudomonas aeruginosa [19] and 6 mm with Bacillus subtilis [20]. Also, the result in the test with Candida albicans was inactive. Besides, the zone of inhibition at 100 µg/mL stood at 7 mm in the test with Escherichia coli [6], 9 mm with Staphylococcus aureus [8], 8 mm in the test with Pseudomonas aeruginosa [16] and 7 mm in the test with Bacillus subtilis [18].

In the case of `O=C1N/C(=N\c2ccc(Cl)cc2)S/C1=C\c1ccc(Cl)cc1`, the zone of inhibition at 200 µg/mL in the test with Bacillus subtilis [1] was 8 mm; with Escherichia coli [11] it was 7 mm; with Pseudomonas aeruginosa [15], 8 mm; in the test with Staphylococcus aureus [17], 9 mm. The Activity result in the test on Staphylococcus aureus [2], with Bacillus subtilis [10], in the test on Pseudomonas aeruginosa [12] and in the test on Escherichia coli [13] was “Dose-dependent effect” each time. In addition, the zone of inhibition at 300 µg/mL amounted to 10 mm with Staphylococcus aureus [3], 10 mm in the test with Bacillus subtilis [5], 10 mm with Pseudomonas aeruginosa [7] and 9 mm in the test on Escherichia coli [9]. Moreover, the zone of inhibition at 50 µg/mL in the test on Escherichia coli [4] was found to be 8 mm; with Staphylococcus aureus [14] it was 6 mm; with Pseudomonas aeruginosa [19], 6 mm; in the test on Bacillus subtilis [20], 7 mm. Besides, the result in the test with Candida albicans was inactive. In addition, the zone of inhibition at 100 µg/mL was 8 mm in the test with Escherichia coli [6], 8 mm in the test on Staphylococcus aureus [8], 7 mm in the test on Pseudomonas aeruginosa [16] and 8 mm in the test with Bacillus subtilis [18].

For `COc1cc(/C=C2\S/C(=N/c3ccc(Cl)cc3)NC2=O)ccc1O`, the zone of inhibition at 200 µg/mL with Bacillus subtilis [1] was determined as 7 mm; in the test with Escherichia coli [11], 9 mm; with Pseudomonas aeruginosa [15], 8 mm; in the test with Staphylococcus aureus [17], 7 mm. For the same compound, the Activity result with Staphylococcus aureus [2], with Bacillus subtilis [10], in the test on Pseudomonas aeruginosa [12] and in the test with Escherichia coli [13] was “Dose-dependent effect” in each case. Further, the zone of inhibition at 300 µg/mL with Staphylococcus aureus [3] was found to be 8 mm; with Bacillus subtilis [5], 7 mm; in the test on Pseudomonas aeruginosa [7] it was 9 mm; in the test with Escherichia coli [9], 9 mm. The zone of inhibition at 50 µg/mL in the test on Escherichia coli [4] turned out to be 7 mm; in the test on Staphylococcus aureus [14], 6 mm; in the test on Pseudomonas aeruginosa [19] it was 7 mm; in the test on Bacillus subtilis [20], 6 mm. Besides, the result in the test with Candida albicans was inactive. Besides, the zone of inhibition at 100 µg/mL with Escherichia coli [6] came out at 8 mm; in the test on Staphylococcus aureus [8], 6 mm; with Pseudomonas aeruginosa [16] it was 7 mm; in the test on Bacillus subtilis [18] it was 7 mm.

`O=C1N/C(=N\c2ccc(F)c(Cl)c2)S/C1=C\c1ccccc1`: the zone of inhibition at 200 µg/mL turned out to be 10 mm in the test with Bacillus subtilis [1], 11 mm in the test with Escherichia coli [11], 10 mm in the test with Pseudomonas aeruginosa [15] and 10 mm with Staphylococcus aureus [17]. Also, the Activity result with Staphylococcus aureus [2], in the test with Bacillus subtilis [10], in the test with Pseudomonas aeruginosa [12] and in the test on Escherichia coli [13] was “Dose-dependent effect” throughout. For the same compound, the zone of inhibition at 300 µg/mL with Staphylococcus aureus [3] was found to be 10 mm; with Bacillus subtilis [5] it was 12 mm; in the test on Pseudomonas aeruginosa [7] it was 12 mm; in the test on Escherichia coli [9], 12 mm. Further, the zone of inhibition at 50 µg/mL with Escherichia coli [4] was determined as 7 mm; in the test on Staphylococcus aureus [14], 6 mm; in the test on Pseudomonas aeruginosa [19], 8 mm; in the test on Bacillus subtilis [20], 6 mm. The outcome in the test with Candida albicans was inactive. The zone of inhibition at 100 µg/mL in the test with Escherichia coli [6] is 8 mm; in the test with Staphylococcus aureus [8], 10 mm; in the test with Pseudomonas aeruginosa [16], 10 mm; in the test on Bacillus subtilis [18], 6 mm.

For the compound `O=C1N/C(=N\c2ccc(Cl)cc2)S/C1=C\c1ccc(O)cc1`, the zone of inhibition at 200 µg/mL was determined as 7 mm in the test with Bacillus subtilis [1], 8 mm with Escherichia coli [11], 8 mm in the test with Pseudomonas aeruginosa [15] and 7 mm in the test on Staphylococcus aureus [17]. Also, the Activity entry in the test on Staphylococcus aureus [2], with Bacillus subtilis [10], with Pseudomonas aeruginosa [12] and in the test on Escherichia coli [13] was “Dose-dependent effect” in each case. Moreover, the zone of inhibition at 300 µg/mL is 8 mm in the test with Staphylococcus aureus [3], 8 mm in the test with Bacillus subtilis [5], 9 mm in the test on Pseudomonas aeruginosa [7] and 8 mm with Escherichia coli [9]. The zone of inhibition at 50 µg/mL in the test on Escherichia coli [4] was determined as 7 mm; with Staphylococcus aureus [14], 6 mm; with Pseudomonas aeruginosa [19], 7 mm; in the test with Bacillus subtilis [20], 6 mm. The result with Candida albicans was inactive. In addition, the zone of inhibition at 100 µg/mL was 7 mm with Escherichia coli [6], 7 mm with Staphylococcus aureus [8], 8 mm with Pseudomonas aeruginosa [16] and 7 mm in the test with Bacillus subtilis [18].

Regarding `COc1cc(/C=C2\S/C(=N/c3ccc(F)c(Cl)c3)NC2=O)ccc1O`, the zone of inhibition at 200 µg/mL amounted to 8 mm with Bacillus subtilis [1], 8 mm in the test on Escherichia coli [11], 10 mm in the test on Pseudomonas aeruginosa [15] and 9 mm with Staphylococcus aureus [17]. The Activity result in the test with Staphylococcus aureus [2], in the test on Bacillus subtilis [10], in the test with Pseudomonas aeruginosa [12] and in the test on Escherichia coli [13] was “Dose-dependent effect” throughout. Moreover, the zone of inhibition at 300 µg/mL in the test with Staphylococcus aureus [3] was found to be 11 mm; with Bacillus subtilis [5] it was 10 mm; in the test with Pseudomonas aeruginosa [7], 10 mm; in the test on Escherichia coli [9], 9 mm. Further, the zone of inhibition at 50 µg/mL with Escherichia coli [4], in the test on Staphylococcus aureus [14], in the test on Pseudomonas aeruginosa [19] and with Bacillus subtilis [20] was 7 mm in each case. Moreover, the result in the test on Candida albicans was inactive. For the same compound, the zone of inhibition at 100 µg/mL in the test on Escherichia coli [6] came to 8 mm; in the test on Staphylococcus aureus [8], 8 mm; in the test with Pseudomonas aeruginosa [16], 9 mm; in the test with Bacillus subtilis [18] it was 8 mm.

For the compound `O=C1N/C(=N\c2ccc(Cl)cc2)S/C1=C\c1ccccc1[N+](=O)[O-]`, the zone of inhibition at 200 µg/mL with Bacillus subtilis [1] is 10 mm; in the test on Escherichia coli [11], 9 mm; in the test with Pseudomonas aeruginosa [15], 8 mm; in the test with Staphylococcus aureus [17] it was 10 mm. Besides, the Activity result in the test with Staphylococcus aureus [2], in the test on Bacillus subtilis [10], in the test with Pseudomonas aeruginosa [12] and in the test with Escherichia coli [13] was “Dose-dependent effect” in each case. In addition, the zone of inhibition at 300 µg/mL in the test on Staphylococcus aureus [3] came out at 10 mm; in the test on Bacillus subtilis [5], 11 mm; with Pseudomonas aeruginosa [7], 9 mm; in the test on Escherichia coli [9], 9 mm. Also, the zone of inhibition at 50 µg/mL came out at 6 mm with Escherichia coli [4], 8 mm in the test on Staphylococcus aureus [14], 7 mm in the test with Pseudomonas aeruginosa [19] and 8 mm with Bacillus subtilis [20]. In addition, the result with Candida albicans was inactive. In addition, the zone of inhibition at 100 µg/mL in the test with Escherichia coli [6] came out at 8 mm; in the test with Staphylococcus aureus [8], 9 mm; in the test on Pseudomonas aeruginosa [16], 8 mm; with Bacillus subtilis [18], 9 mm.

Regarding `O=C(O)c1cn(C2CC2)c2cc(N3CCNCC3)c(F)cc2c1=O` [CIPROFLOXACIN], the zone of inhibition at 100 µg/mL with Staphylococcus aureus [8] is 14 mm; with Pseudomonas aeruginosa [16], 15 mm; in the test with Bacillus subtilis [18], 15 mm.

Values taken from ChEMBL document CHEMBL3044899, “Effect of chloro and fluoro groups on the antimicrobial activity of 2,5-disubstituted 4-thiazolidinones: a comparative study” (2012).
